{"source": "patent US4910193A", "about": "“Treatment of gastrointestinal disorders” (Sandoz Ltd., priority 1987, dated 1990)", "key": {"dopamine binding sites [1]": {"target": "dopamine binding sites", "assay": "Binding to dopamine sites with tritiated haloperidol", "procedure": "Several drugs e.g. metoclopramide are known for the treatment of gastrointestinal disorders (gut motility disorders). Action has been ascribed to opiates (e.g. loperamide), dopaminergic compounds (e.g. metoclopramide) although for most drugs the mode of the action is not well understood (see J. R. Malegeleda Scand. J. Gastroenterology, 19, Suppl. 96, 1984, pp. 115-121).\nThe compounds of the invention have insignificant action on dopamine binding sites, e.g. having an IC50 of […] or more using tritriated haloperidol."}, "dopamine binding sites [2]": {"target": "dopamine binding sites", "details": "tritiated haloperidol; read-out: IC50 dopamine sites (literature); cited from earlier work"}, "dopamine": {"system": "dopamine", "details": "in words; comparison drug; cited from earlier work"}, "5-HT reflex": {"system": "5-HT reflex", "details": "in words; comparison drug; cited from earlier work"}, "[3]": {"system": "gastrointestinal motility induced by 5-hydroxytryptophan (5-HTP)", "assay": "Test C: inhibition of increase in gastrointestinal motility induced by 5-HTP", "format": "in vivo, mouse (male NMRI)", "details": "Mus musculus, ip; inhibition of 5-HTP induced motility", "procedure": "In a further test the inhibition of the compounds of the invention in inhibiting the increase in gastrointestinal motility induced by 5-hydroxytryptophan (5-HTP) was observed.\nMale NMRI mice (18-32 g in weight) are deprived of food 20 hours before the test. Water is not limited. The animals are separated by a barrier from their straw and access to feces. At the beginning of the test the animals are separated in individual single cages and water is removed.\nAll animals were treated with the test compound or saline. I.p. administration was used. Injection volume was 0.1 ml/10 g. 30 minutes after pre-treatment 5-HTP or saline was administered. Injection volume 0.1 ml/10 g. Dose 3 mg/kg. At the same time charcoal was administered perorally (10% suspension in water; 0.1 ml/10 g). 45 minutes after the start of the experiment the animals were killed. The intestines from the stomach to the rectum were examined. For each animal the transit distance of the front of the charcoal mean along the intestine was measured. The distance was ascertained as a percentage of the whole intestinal length. Groups of at least 3 animals were used."}, "[4]": {"system": "high affinity 5-HT receptor", "assay": "Isolated longitudinal muscle of guinea pig ileum, 5-HT contraction, high affinity receptor", "text": "The isolated longitudinal muscle of the guinea pig ileum with its adhering myenteric plexus is a well established model which permits investigation of the mechanism of action of various neurotransmitters.\nMale guinea pigs (200-400 g) were killed by a blow on the head and exsanguineated. A length of small intestine was removed about 2 cm from the ileo-caecal valve. The mesentery was carefully removed and the ileum was stretched over a glass rod. By stroking tangentially away from the mesenteric attachement with a wad of cotton wool, the longitudinal muscle layer was separated and stripped from the unterlying circular muscle. Longitudinal muscle strips, 3-4 cm length, were mounted in a 10 ml organ bath containing Tyrode solution at 37° C. and bubbled with 5% carbon dioxide in oxygen. The Tyrode solution was of the following composition (mmol/l): NaCl, 137.0; CaCl2, 1.8; KCl, 2.7; MgCl2, 1.05; NaHCO3, 11.9; NaH2 PO4, 0.4; glucose, 5.6. The strips were placed under a resting tension of 500 mg. Contractions were recorded with an isotonic pendulum lever. […]\nEach concentration was left in contact with the tissue for 1 min. […] Inhibition constants were expressed in the form of pA2 values which were graphically determined according to conventional methods (Arunlakshana and Schild, 1959. McKay 1978). […]"}, "[5]": {"target": "T1, low affinity 5-HT receptor (Cavia porcellus, UniProt O70212)", "T1 construct": "The isolated longitudinal muscle of the guinea pig ileum with its adhering myenteric plexus; from tissue; host or cells: longitudinal muscle strips of ileum with myenteric plexus, male guinea pigs", "T1 sequence (O70212 20-490)": "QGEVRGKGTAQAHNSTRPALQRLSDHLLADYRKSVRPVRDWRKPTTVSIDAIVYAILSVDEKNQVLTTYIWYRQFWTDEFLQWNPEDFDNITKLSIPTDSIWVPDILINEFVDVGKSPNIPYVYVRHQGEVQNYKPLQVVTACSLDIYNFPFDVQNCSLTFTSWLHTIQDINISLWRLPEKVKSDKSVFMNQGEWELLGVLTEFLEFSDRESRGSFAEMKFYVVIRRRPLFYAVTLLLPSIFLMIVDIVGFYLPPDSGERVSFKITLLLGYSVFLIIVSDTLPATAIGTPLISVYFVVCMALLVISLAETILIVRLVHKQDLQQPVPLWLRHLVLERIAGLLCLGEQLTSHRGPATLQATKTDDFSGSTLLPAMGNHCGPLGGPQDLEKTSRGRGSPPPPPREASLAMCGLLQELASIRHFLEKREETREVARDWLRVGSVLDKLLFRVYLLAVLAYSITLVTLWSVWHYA", "assay": "Isolated longitudinal muscle of guinea pig ileum, 5-HT contraction, low affinity receptor", "details": "read-out: pA2 (converted)", "experimental": "Male guinea pigs (200-400 g) were killed by a blow on the head and exsanguineated. A length of small intestine was removed about 2 cm from the ileo-caecal valve. The mesentery was carefully removed and the ileum was stretched over a glass rod. By stroking tangentially away from the mesenteric attachement with a wad of cotton wool, the longitudinal muscle layer was separated and stripped from the unterlying circular muscle. Longitudinal muscle strips, 3-4 cm length, were mounted in a 10 ml organ bath containing Tyrode solution at 37° C. and bubbled with 5% carbon dioxide in oxygen. […] The strips were placed under a resting tension of 500 mg. Contractions were recorded with an isotonic pendulum lever. After equilibration for 30 min a set concentration of carbachol was applied in 10 min intervals until a consistent reaction was achieved.\nProduction of the concentration/reaction curve\nNon-cumulative concentration-response curves for 5-HT were established by adding increasing concentrations of the agonist to the organ bath at intervals of at least 15 min. […] Each concentration was left in contact with the tissue for 1 min. […] The contractions expressed as percentage of the maximal response to 5-HT obtained from several preparations were plotted as mean values in order to obtain log-concentration-response curves."}, "rabbit heart": {"system": "rabbit heart", "details": "in words; cited from earlier work"}, "[6]": {"system": "chloera toxin-induced secretory diarrhea", "parameters": "species or system mouse (male NMRI)", "details": "mouse, in vivo"}, "[7]": {"system": "5-HT3 receptors in the guinea pig ileum", "details": "counteracting 5-HT induced spasms; cited from earlier work"}, "[8]": {"system": "muscle strips from different parts of the guinea pig stomach", "assay": "Test A: field stimulation-induced contractions in guinea pig stomach muscle strips", "parameters": "species or system guinea pig (male Dunkin-Hartley)", "text": "The compounds of the invention facilitate field stimulation-induced contractions in muscle strips from different parts of the guinea pig stomach and are therefore indicated to increase decreased peristalic movements in the stomach and to enhance gastric emptying in vivo. The test is effected as follows:\nMale Dunkin-Hartley guinea pigs, 340-450 g, which had been starved overnight, were killed by cervical transsection and the stomach removed and placed in Krebs-Henseleit solution (NaCl 118.0, KCl 4.75, KH2 PO4 1.2, MgSO4 1.2, CaCl2 2.5, glucose 10 mM). Segments were taken from the body (approximately 20 mm long, 3-4 mm wide) with dissection in a plane suitable to investigate tension changes in the circular muscle layer. Tissues were placed in 30 ml organ baths containing oxygenated (95% O2, 5% CO2) Krebs-Henseleit solution at 37° C. One gram tension was applied to the tissues which were allowed to equilibrate for 45-60 min. before electrical stimulation. […] Responses were measured as changes in gram tension, but to allow easier comparison between treatments, data was converted to show changes as percentage values. The significance of differences between control responses and those obtained in the presence of interacting drugs was assessed using the Mann-Whitney U test."}, "rabbit vagus": {"system": "rabbit vagus", "details": "in words; cited from earlier work"}, "[9]": {"system": "conscious guinea pigs having stomachs made atonic", "assay": "Test B: gastric emptying in conscious guinea pigs (X-ray of spheroids)", "format": "in vivo, guinea pig", "details": "versus metoclopramide", "procedure": "The compounds of the invention also induce gastric emptying as indicated in standard in vivo tests, e.g. in conscious guinea pigs having stomachs made atonic (i.e. having decreased peristaltic movements) by fasting and wherein the passage of glass spheroids was observed by X-ray techniques. The experiments is effected as follows:\nFood was withdrawn for 14 hours before the measurement of gastric emptying. The experiment was conducted under low illumination with minimal noise and disturbance, and was carried out only by those experimentors who had daily contact with the guinea pigs and who carried out the initial training to accustom the guinea pigs to handling. Therefore, animals were subject to minimal stress. […] Gastric emptying was measured as the number of spheroids leaving the stomach.\nSix guinea pigs were used at each dose level of drug and responses compared to those of guinea pigs receiving the appropriate vehicle. The significance of differences between drug and control responses was assessed using the Mann Whitney U test."}, "[10]": {"assay": "Properties of salt forms (solubility, stability)", "format": "physicochemical", "details": "in words"}}, "note": "Where a name gives a salt, the structure may show the parent alone. Read-outs that look alike come from different tables or passages of the source.", "data": [{"smiles": "CNc1cc(OC)c(C(=O)NC2CN3CCC2CC3)cc1Cl", "note": "(centres unmarked) [Example 71]", "values": [{"measurement": "IC50", "setting": "dopamine binding sites [1]", "value": "> 10000", "unit": "nM"}]}, {"smiles": "CCN(CC)CCNC(=O)c1cc(Cl)c(N)cc1OC", "note": "[metoclopramide]", "values": [{"measurement": "IC50", "setting": "dopamine binding sites [2]", "value": "~170", "unit": "nM"}, {"measurement": "dopamine action", "setting": "dopamine", "value": "dopamine agonist action"}]}, {"smiles": "CN1[C@@H]2CC[C@H]1C[C@@H](OC(=O)C(CO)c1ccccc1)C2", "note": "(some centres unmarked) [atropine]", "values": [{"measurement": "effect on the whole reflex", "setting": "5-HT reflex", "value": "paralyse the whole reflex"}]}, {"smiles": "CN1[C@@H]2CCC[C@H]1C[C@@H](OC(=O)c1cn(C)c3ccc(F)cc13)C2", "note": "[Compound G, 5-fluoro-1-methyl-indol-3-yl carboxylic acid endo-9-methyl-9-aza-bicyclo[3,3,1]non-3-yl ester]", "values": [{"measurement": "ED50", "setting": "[3]", "value": 0.002, "unit": "mg/kg"}]}, {"smiles": "CN1[C@@H]2CCC[C@H]1C[C@@H](OC(=O)c1csc3ccccc13)C2", "note": "[Compound F, Benzo[b]thiophen-3-yl carboxylic acid endo-9-methyl-aza-bicyclo[3,3,1]non-3-yl ester]", "values": [{"measurement": "pD'2", "setting": "[4]", "value": 5.9}, {"measurement": "Kb", "setting": "[5]", "value": 0.398, "unit": "nM"}, {"measurement": "ED50", "setting": "[3]", "value": 0.025, "unit": "mg/kg"}]}, {"smiles": "CN1[C@@H]2CC[C@H]1C[C@@H](OC(=O)c1c[nH]c3ccccc13)C2", "note": "[Compound E, Indol-3-yl carboxylic acid endo-8-methyl-8-aza-bicyclo-[3,2,1]oct-3-yl ester]", "values": [{"measurement": "action against 5-HT on rabbit heart", "setting": "rabbit heart", "value": "antagonistic action against 5-HT"}, {"measurement": "pD'2", "setting": "[4]", "value": 5.7}, {"measurement": "effect of increased dose on stomach contents", "setting": "[6]", "value": "did not lead to a reduction in the stomach contents"}, {"measurement": "action at 5-HT3 receptors in guinea pig ileum", "setting": "[7]", "value": "competitive antagonist of the 5-HT3 receptors in the guinea pig ileum"}, {"measurement": "Kb", "setting": "[5]", "value": 12.6, "unit": "nM"}, {"measurement": "ED50", "setting": "[3]", "value": 0.07, "unit": "mg/kg"}, {"measurement": "EC (maximal response)", "setting": "[8]; Cavia porcellus, field stimulation of stomach strips, read-out: concentration producing maximal response", "value": 0.01, "unit": "µM"}, {"measurement": "times more active than metoclopramide (contraction)", "setting": "[8]; versus metoclopramide", "value": 100, "unit": "times"}, {"measurement": "action against 5-HT on rabbit vagus", "setting": "rabbit vagus", "value": "antagonistic action against 5-HT"}, {"measurement": "times more active than metoclopramide (gastric emptying)", "setting": "[9]", "value": "about 50 times"}]}, {"smiles": "CN1[C@@H]2CCC[C@H]1C[C@@H](OC(=O)c1csc3ccccc13)C2", "note": "[hydrochloride of compound F]", "values": [{"measurement": "solubility and stability properties of salt form", "setting": "[10]", "value": "especially advantageous properties, e.g. from the solubility and stability point of view"}]}, {"smiles": "CN1[C@@H]2CCC[C@H]1C[C@@H](OC(=O)c1cn(C)c3ccc(F)cc13)C2", "note": "[hydrogen maleate of compound G]", "values": [{"measurement": "solubility and stability properties of salt form", "setting": "[10]", "value": "especially advantageous properties, e.g. from the solubility and stability point of view"}]}]}
